Assay results reported in patent publication US10080748B2, “Use of flap inhibitors to reduce neuroinflammation mediated injury in the central nervous system” (Bioscience Pharma Partners, LLC, priority 2014, dated 2018).

Key:
Format in all cases: in vivo
[1] = test system: rats subjected to FPI (TBI model); assay: Evans Blue extravasation, BBB permeability in hippocampus (rat FPI); settings: 15 minutes after TBI; slices five hours post-injury
Description: Craniotomy and lateral fluid percussion injury (FPI) were performed using a previously validated and published procedure. Farias S, et al. J. Neurotraum, 26, 1977-1986, 2009; Frey L. C. et al. J. Neurosci. Methods 177, 267-272, 2009. Throughout the specification animals subjected to this protocol are referred to as having a TBI since this treatment protocol is a TBI model. Briefly, rats were anesthetized with 3-5% isoflurane, isosol, VEDCO Inc., St. Joseph, Mo., via nose cone and mounted in a stereotaxic head frame. A 3 millimeter (mm) craniotomy was created and centered at 3 mm caudal to bregma and 3.5 mm left of the sagittal suture, keeping the exposed dura intact. […] Moistened food pellets were provided after injury, and all animals were monitored daily for well-being and weight changes. […]
One hour prior to FPI, rats received a 5 ml intraperitoneal (IP) injection of Evans Blue (EB) solution, 2% w/v in saline. […] Images from each slice were stitched together using Fiji/ImageJ (NIH), and EB-positive cells in the hippocampal cell layers were quantified using the cell counter tool.
The inventors utilized Evans Blue (EB) fluorescence to assess BBB permeability in the rat FPI model. […] Fluorescence microscopy was used to image brain slices harvested five hours post-injury, taking advantage of EB's intrinsic fluorescent properties, excitation at 620 nm and emission at 680 nm. […]

[2] = test system: leukotriene LTC4 production; assay: LTC4 levels in brain after rat fluid percussion injury (RP LC-MS/MS)
Description: Craniotomy and lateral fluid percussion injury (FPI) were performed using a previously validated and published procedure. Farias S, et al. J. Neurotraum, 26, 1977-1986, 2009; Frey L. C. et al. J. Neurosci. Methods 177, 267-272, 2009. Throughout the specification animals subjected to this protocol are referred to as having a TBI since this treatment protocol is a TBI model. Briefly, rats were anesthetized with 3-5% isoflurane, isosol, VEDCO Inc., St. Joseph, Mo., via nose cone and mounted in a stereotaxic head frame. A 3 millimeter (mm) craniotomy was created and centered at 3 mm caudal to bregma and 3.5 mm left of the sagittal suture, keeping the exposed dura intact. One steel support screw was embedded in the skull on the contralateral side. A Luer-Lock hub with an inside diameter of 3.5 mm was centered over the craniotomy and bonded to the skull with cyanoacrylate adhesive and capped. Dental acrylic, Snap, Parka, Inc., Edgewood, N.J., was poured around the huh and screw. After the acrylic hardened antibiotic ointment was applied around the cap and the animals were returned to their cages. The next day, approximately 15-20 hours later, animals were anesthetized with isoflurane in an induction chamber, immediately connected to the FPI apparatus, and received a 20 millisecond (ms) pulse of pressurized sterile saline at 2.7 atmospheres (atm) of pressure to simulate a moderate severity impact on the intact dural surface through the craniotomy before awakening from anesthesia. […] All animals received a subcutaneous injection of the analgesic, buprenorphine, 0.05 milligram/kilogram (mg/kg) Buprenex, prior to craniotomy, and subsequent injections every 12 hours for two days. Moistened food pellets were provided after injury, and all animals were monitored daily for well-being and weight changes.
Two groups of four rats each were subjected to FPI as described above. Four days prior to the FPI, each animal was briefly anesthetized for less than 5 minutes with 3-3.5% isoflurane and administered either NaCl 0.9%, 2 ml/kg IV (vehicle) or vinblastine sulfate 0.5 mg/kg IV in an identical volume. Neutrophil depletion was verified by complete cell blood counts (CBC) in vinblastine treated animals 4 days after administration. Both groups were euthanized by decapitation and the brain lipids extracted 1 hour after FPI. The amounts of LTC4 formed, measured by RP LC-MS/MS and normalized per milligram of protein, were compared between groups using one-way analysis of variance and the Student-Newman-Keuls test for multiple comparisons.
The indole FLAP inhibitor MK-886 was prepared at a dose of 2.5 milligram/milliliter (mg/ml), dissolved in dimethyl sulfoxide (DMSO) and then diluted with 0.9% saline to 10% DMSO. The rats were briefly anesthetized with 3-3.5% isoflurane and either […] at a dose of 6 mg/kg or vehicle was administered intravenously (IV) by tail vein injection. All animals were allowed to wake before undergoing additional procedures.
Cortical and hippocampal regions from ipsilateral and contralateral hemispheres were collected in 4 ml of 80% methanol, homogenized with a Dounee homogenizer, and internal standards were added to the homogenates. Protein content was measured using bicinchoninic acid assay (BCA) for protein to normalize lipid levels to the amount of tissue. Samples were centrifuged and the supernatant was collected. Samples were diluted to a final methanol concentration of lower than 15% and then the lipids were extracted using a solid phase extraction cartridge, Strata C18-E, 100 mg/1 ml, Phenomenex, Torrence Calif. The eluate, 1 ml of methanol, was dried down and reconstituted in 70 microliters (μl) of High Performance Liquid Chromotography (HPLC) solvent A, which is 8.3 mM acetic acid buffered to pH 5.7 with NH4OH, plus […] of solvent B, which is acetonitrile/methanol, 65/35, v/v. […]

[3] = test system: rats subjected to FPI (TBI model); assay: Rotarod vestibulomotor performance after TBI (rat FPI); settings: administered 15 minutes after TBI
Description: Craniotomy and lateral fluid percussion injury (FPI) were performed using a previously validated and published procedure. Farias S, et al. J. Neurotraum, 26, 1977-1986, 2009; Frey L. C. et al. J. Neurosci. Methods 177, 267-272, 2009. Throughout the specification animals subjected to this protocol are referred to as having a TBI since this treatment protocol is a TBI model. Briefly, rats were anesthetized with 3-5% isoflurane, isosol, VEDCO Inc., St. Joseph, Mo., via nose cone and mounted in a stereotaxic head frame. A 3 millimeter (mm) craniotomy was created and centered at 3 mm caudal to bregma and 3.5 mm left of the sagittal suture, keeping the exposed dura intact. One steel support screw was embedded in the skull on the contralateral side. A Luer-Lock hub with an inside diameter of 3.5 mm was centered over the craniotomy and bonded to the skull with cyanoacrylate adhesive and capped. Dental acrylic, Snap, Parka, Inc., Edgewood, N.J., was poured around the huh and screw. […] Moistened food pellets were provided after injury, and all animals were monitored daily for well-being and weight changes.
For rotarod testing, the rod's rotation was programmed to accelerate from 0 to 50 rpm over the course of 300 seconds. Four trials were run at each selected time point after injury and the individual trial and mean times for each animal are recorded. […]

[4] = MK-886 6 mg/kg IV 30 minutes prior to TBI, 1 hour after TBI
[5] = MK-886 6 mg/kg IV 30 minutes prior to TBI, measured 1 hour after TBI
[6] = single dose 15 minutes after TBI

## CC(C)c1ccc2c(c1)c(SC(C)(C)C)c(CC(C)(C)C(=O)O)n2Cc1ccc(Cl)cc1 [MK-886, 1-[(4-Chlorophenyl)methyl]-3-[(1,1-dimethylethyl)thio]-α,α-dimethyl-5-(1-methylethyl)-1H-Indole-2-propanoic acid]
[1]
  number of EB-positive cells in the CA1 region: 69.25+/−36.82
[2]; [4]
  LTC4 levels lower than vehicle-treated injured animals, contralateral right hemisphere: 64%
  LTC4 levels lower than vehicle-treated injured animals, ipsilateral left hemisphere: 85%
[2]; [5]
  LTC4 level, contralateral right hemisphere: 2.6+/−0.80 pg/mg protein
  LTC4 level, ipsilateral left hemisphere: 3.39+/−0.42 pg/mg protein
[2]; MK-886-treated injured rats
  LTC4 level, ipsilateral cortex: undetectable
  LTC4 level, ipsilateral hippocampus: undetectable
[2]; [6]
  LTC4 level, contralateral hemisphere: below the detectable threshold
  LTC4 level, ipsilateral hemisphere: below the detectable threshold
[3]
  vestibulomotor performance on the rotarod compared to vehicle: improved vestibulomotor performance
